The values that follow come from ChEMBL document CHEMBL3769348, “A structureactivity relationship study of the positive allosteric modulator LY2033298 at the M4muscarinic acetylcholine receptor” (Medchemcomm, 2015).

SMILES strings stand for the structures. Activity calls are given as the source filed them. No cut-off for these calls is given here.

Usually pKb stands for the Kb on a negative log10 scale, so that one unit is a factor of ten. Broadly, the Ki is a dissociation constant, usually derived from enzyme kinetics or from competition with a known ligand.

What all share (assay type): cell-based
Assay [1] deals with T1, Muscarinic acetylcholine receptor M4 (Homo sapiens) (UniProt P08173).
T1 sequence (whole entry): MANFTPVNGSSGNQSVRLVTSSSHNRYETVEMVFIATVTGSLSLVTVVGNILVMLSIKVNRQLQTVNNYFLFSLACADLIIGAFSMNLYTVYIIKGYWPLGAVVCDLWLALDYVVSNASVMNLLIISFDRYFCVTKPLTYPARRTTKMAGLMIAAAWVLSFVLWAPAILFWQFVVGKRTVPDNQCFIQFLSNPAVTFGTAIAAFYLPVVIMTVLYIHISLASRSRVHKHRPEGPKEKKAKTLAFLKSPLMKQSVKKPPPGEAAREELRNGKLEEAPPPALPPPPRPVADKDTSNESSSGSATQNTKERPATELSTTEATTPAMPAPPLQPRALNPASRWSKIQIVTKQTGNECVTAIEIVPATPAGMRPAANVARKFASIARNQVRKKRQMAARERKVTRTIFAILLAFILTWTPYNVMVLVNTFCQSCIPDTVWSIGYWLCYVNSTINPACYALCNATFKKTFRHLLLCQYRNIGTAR
Nature of the assay: Allosteric modulation of human M4 mAChR expressed in FIpIn-CHO cells assessed as ERK1/2 phosphorylation measured overall cooperativity after 6 mins by Alphascreen assay. For orientation: Bead proximity is the source of the signal in Alpha formats.

Assay [2] has as its target T1, Muscarinic acetylcholine receptor M4 (Homo sapiens). Nature of the assay: Displacement of [3H]NMS from human M4 mAChR expressed in FIpIn-CHO cells assessed as ligand affinity after 4 hrs by scintillation counting method in the presence of ACh. For orientation: Displacement assays read how much labelled ligand stays bound in the presence of the test substance.
Assay [3] shares this target. Nature of the assay: Allosteric modulation of human M4 mAChR expressed in FIpIn-CHO cells assessed as ERK1/2 phosphorylation after 6 mins by Alphascreen assay in the presence of ACh.
Assay [4] concerns the target T2, Muscarinic acetylcholine receptor M4 (Homo sapiens, UniProt P08173).
T2 sequence (P08173 whole entry): T1 sequence (whole entry)
As to the kind of experiment: Displacement of [3H]NMS from human M4 mAChR expressed in FIpIn-CHO cells after 4 hrs by scintillation counting method in the presence of ACh.

Assay [5] has as its target T1, Muscarinic acetylcholine receptor M4 (Homo sapiens). As to the kind of experiment: Intrinsic activity at human M4 mAChR expressed in FIpIn-CHO cells assessed as ERK1/2 phosphorylation after 6 mins by Alphascreen assay in the presence of ACh.

Take `COc1nc2sc(C(=O)NC3CC3)c(N)c2c(C)c1I`: in assay [1], the Activity amounted to 9.3 and the log(activity) was 0.97. Also, in assay [2], the Activity amounted to 269 and the log(activity) was determined as 2.43. In assay [3], the Kb was 200 nM and the negative-log Kb (pKb) is 6.66. The Ki in assay [4] stood at 1700 nM. Further, in assay [5], the Intrinsic activity is 2.3 and the log(IA) amounted to 0.37.

As to `COc1nc2sc(C(=O)NC3CC3)c(NC(C)=O)c2c(C)c1Cl`, in assay [1], the result was inactive and the “log(activity)” value was “inactive”. Moreover, in assay [3], the Kb result is “inactive” and the pKb entry was “inactive”. For the same compound, in assay [5], the Intrinsic activity result was “inactive” and the “log(IA)” value was “inactive”.

Consider `Cc1cc(C)c2c(N)c(C(=O)NC3CC3)sc2n1`, for which, in assay [1], the Activity amounted to 52.5 and the log(activity) was 1.72. Further, in assay [5], the Intrinsic activity stood at 5.9 and the log(IA) turned out to be 0.77.

For the compound `CCCCOc1nc2sc(C(=O)NC3CC3)c(N)c2c(C)c1Cl`, in assay [1], the Activity amounted to 2.5 and the log(activity) came out at 0.4. Besides, in assay [2], the Activity was 22.4 and the log(activity) was found to be 1.35. Besides, in assay [3], the Kb was 200 nM and the negative-log Kb (pKb) was 6.81. The inhibition constant (Ki) in assay [4] is 2700 nM. Further, in assay [5], the Intrinsic activity was 0.3 and the log(IA) is -0.51.

With `CCCC(=O)Nc1c(C(=O)NC2CC2)sc2nc(OC)c(Cl)c(C)c12`, in assay [1], the result was inactive and the “log(activity)” value was “inactive”. Further, in assay [3], the Kb entry was “inactive” and the pKb entry was “inactive”. Also, in assay [5], the Intrinsic activity result was “inactive” and the “log(IA)” value is “inactive”.

As to `CCNC(=O)c1sc2nc(OC)c(Cl)c(C)c2c1N`, in assay [1], the Activity was 69.2 and the log(activity) turned out to be 1.84. Besides, in assay [2], the Activity was 562 and the log(activity) came to 2.75. For the same compound, in assay [3], the Kb is 200 nM and the pKb was found to be 6.73. In addition, the inhibitory constant (Ki) in assay [4] is 4300 nM. In addition, in assay [5], the Intrinsic activity turned out to be 8.7 and the log(IA) was 0.94.

Consider `CCCCNC(=O)c1sc2nc(OC)c(Cl)c(C)c2c1N`, for which, in assay [1], the Activity is 15.5 and the log(activity) is 1.19. In assay [2], the Activity came out at 123 and the log(activity) was determined as 2.09. Moreover, in assay [3], the Kb is 500 nM and the negative-log Kb (pKb) was determined as 6.29. In assay [4], the Ki was 3200 nM. Moreover, in assay [5], the Intrinsic activity worked out at 2.8 and the log(IA) turned out to be 0.44.

As to `COc1nc2sc(C(=O)NC3CC3)c(N)c2c(C)c1Br`, in assay [1], the Activity worked out at 81.3 and the log(activity) was determined as 1.91. Further, in assay [2], the Activity was found to be 347 and the log(activity) came to 2.54. For the same compound, in assay [3], the Kb worked out at 300 nM and the pKb amounted to 6.52. In addition, in assay [4], the inhibition constant Ki turned out to be 520 nM. Also, in assay [5], the Intrinsic activity was found to be 17.8 and the log(IA) was determined as 1.25.

Regarding `CCCCCCOc1nc2sc(C(=O)NC3CC3)c(N)c2c(C)c1Cl`, in assay [1], the Activity turned out to be 2 and the log(activity) came to 0.3. In assay [3], the Kb amounted to 40 nM and the pKb was 7.42. In assay [5], the Intrinsic activity is 0.2 and the log(IA) is -0.75.

With `Cc1nc(C)c2c(N)c(C(=O)NC3CC3)sc2n1`, in assay [1], the Activity was 14.1 and the log(activity) stood at 1.15. Further, in assay [3], the Kb was found to be 12500 nM and the negative-log Kb (pKb) was found to be 4.9. In assay [5], the Intrinsic activity was 3.1 and the log(IA) worked out at 0.49.

As for `CCCCCC(=O)Nc1c(C(=O)NC2CC2)sc2nc(OC)c(Cl)c(C)c12`, in assay [1], the result was inactive and the “log(activity)” value is “inactive”. In assay [3], the Kb result was “inactive” and the pKb entry was “inactive”. Further, in assay [5], the Intrinsic activity result is “inactive” and the “log(IA)” value is “inactive”.

`Cc1nc2sc(C(=O)NC3CC3)c(N)c2c(C)c1Cl`: in assay [1], the Activity amounted to 77.6 and the log(activity) turned out to be 1.89. Also, in assay [3], the Kb worked out at 400 nM and the negative logarithm of the Kb (pKb) amounted to 6.45. In assay [5], the Intrinsic activity was 12.9 and the log(IA) was 1.11.

As for `CCOc1nc2sc(C(=O)NC3CC3)c(N)c2c(C)c1Cl`, in assay [1], the Activity was determined as 61.7 and the log(activity) was 1.79. Besides, in assay [2], the Activity turned out to be 95.5 and the log(activity) was determined as 1.98. Further, in assay [3], the Kb was 800 nM and the negative-log Kb (pKb) came out at 6.1. In addition, the Ki in assay [4] was determined as 200 nM. Moreover, in assay [5], the Intrinsic activity was 9.3 and the log(IA) was 0.97.

In the case of `COc1nc2sc(C(=O)NC3CC3)c(N)c2c(C)c1Cl`, in assay [1], the Activity turned out to be 240 and the log(activity) was found to be 2.38. For the same compound, in assay [2], the Activity came to 1740 and the log(activity) was found to be 3.24. For the same compound, in assay [3], the Kb was found to be 400 nM and the pKb was 6.41. Moreover, the inhibitory constant (Ki) in assay [4] amounted to 400 nM. Besides, in assay [5], the Intrinsic activity was found to be 8.5 and the log(IA) is 0.93.

For `COc1cc(C)c2c(N)c(C(=O)NC3CC3)sc2n1`, in assay [1], the Activity was found to be 28.8 and the log(activity) came out at 1.46. In assay [3], the Kb was determined as 2800 nM and the pKb turned out to be 5.55. In assay [5], the Intrinsic activity was determined as 4.6 and the log(IA) stood at 0.66.

For `CCCCCCNC(=O)c1sc2nc(OC)c(Cl)c(C)c2c1N`, in assay [1], the Activity was 1.3 and the log(activity) was 0.13. In assay [3], the Kb came out at 200 nM and the pKb was found to be 6.7. Further, in assay [5], the Intrinsic activity was 0.4 and the log(IA) was -0.35.
